Legend:
[1] = biological target: Prostaglandin E2 receptor EP1 subtype (Homo sapiens) (UniProt P34995); assay: Prostanoid EP1 Eurofins Panlabs panel; settings: Compound concentration 10.0 uM
[2] = biological target: Prostaglandin G/H synthase 2 (Homo sapiens) (UniProt P35354); assay: Cyclooxygenase COX-2 Eurofins Panlabs panel; settings: Compound concentration 10.0 uM
[3] = biological target: Glutamate NMDA receptor (Rattus norvegicus) (UniProt P35439+Q00959+Q00960+Q00961+Q62645+Q8VHN2+Q9R1M7); assay: Glutamate, NMDA, Agonism Eurofins Panlabs panel; assay type: protein-complex assay; settings: Compound concentration 10.0 uM
[4] = biological target: Leukotriene C4 synthase (Cavia porcellus) (UniProt A6XA80); assay: Leukotriene LTC4 Synthase Eurofins Panlabs panel; settings: Compound concentration 10.0 uM
[5] = biological target: T1, 5-hydroxytryptamine receptor 2C (Homo sapiens) (UniProt P28335); assay: Serotonin (5-Hydroxytryptamine) 5-HT2C Eurofins Panlabs panel; settings: Compound concentration 10.0 uM
T1 sequence (whole entry): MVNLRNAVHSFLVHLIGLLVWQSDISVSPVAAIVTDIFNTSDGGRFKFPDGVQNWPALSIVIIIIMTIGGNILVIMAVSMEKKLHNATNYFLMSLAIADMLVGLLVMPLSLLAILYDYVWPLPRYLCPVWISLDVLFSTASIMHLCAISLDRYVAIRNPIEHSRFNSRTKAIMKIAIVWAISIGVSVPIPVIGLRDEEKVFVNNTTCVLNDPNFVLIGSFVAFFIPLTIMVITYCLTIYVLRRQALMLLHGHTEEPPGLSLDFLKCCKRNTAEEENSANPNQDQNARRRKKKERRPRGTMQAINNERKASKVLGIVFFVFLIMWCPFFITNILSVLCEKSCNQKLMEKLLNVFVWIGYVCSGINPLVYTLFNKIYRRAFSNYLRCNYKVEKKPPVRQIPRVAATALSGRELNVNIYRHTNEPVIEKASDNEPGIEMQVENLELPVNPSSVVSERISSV

[6] = biological target: GABA-A receptor; anion channel (Rattus norvegicus) (UniProt O09028+P15431+P18506+P18508+P19969+P20236+P23574+P23576+P28471+P28473+P30191+P62813+P63079+P63138+Q91ZM7+Q9ES14); assay: GABAA, Flunitrazepam, Central Eurofins Panlabs panel; assay type: protein-complex assay; settings: Compound concentration 10.0 uM
[7] = biological target: Sodium-dependent dopamine transporter (Homo sapiens) (UniProt Q01959); assay: Uptake, Dopamine - Antagonist Eurofins Panlabs panel; settings: Compound concentration 10.0 uM
Chain of Sodium-dependent dopamine transporter (Homo sapiens) (Q01959 whole entry): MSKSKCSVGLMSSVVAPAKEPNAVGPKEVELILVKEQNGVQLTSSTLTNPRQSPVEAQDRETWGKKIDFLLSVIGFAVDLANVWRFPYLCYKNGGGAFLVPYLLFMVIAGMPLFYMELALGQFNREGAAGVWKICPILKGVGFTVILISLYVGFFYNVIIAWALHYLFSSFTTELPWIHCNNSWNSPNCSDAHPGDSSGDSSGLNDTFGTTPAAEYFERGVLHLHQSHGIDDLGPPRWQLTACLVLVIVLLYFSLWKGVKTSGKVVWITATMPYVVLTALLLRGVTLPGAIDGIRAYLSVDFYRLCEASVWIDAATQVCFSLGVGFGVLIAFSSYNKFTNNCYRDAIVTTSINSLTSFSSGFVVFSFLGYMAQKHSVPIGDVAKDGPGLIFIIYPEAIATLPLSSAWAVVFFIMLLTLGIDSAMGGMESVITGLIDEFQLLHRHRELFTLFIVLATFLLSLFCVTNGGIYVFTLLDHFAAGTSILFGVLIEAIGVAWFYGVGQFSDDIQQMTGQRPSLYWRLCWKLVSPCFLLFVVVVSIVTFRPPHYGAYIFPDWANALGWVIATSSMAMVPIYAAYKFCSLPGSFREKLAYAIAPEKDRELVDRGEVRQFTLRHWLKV

[8] = biological target: T2, Alpha-2C adrenergic receptor (Homo sapiens) (UniProt P18825); assay: Adrenergic alpha2C Eurofins Panlabs panel; settings: Compound concentration 10.0 uM
T2 sequence (whole entry): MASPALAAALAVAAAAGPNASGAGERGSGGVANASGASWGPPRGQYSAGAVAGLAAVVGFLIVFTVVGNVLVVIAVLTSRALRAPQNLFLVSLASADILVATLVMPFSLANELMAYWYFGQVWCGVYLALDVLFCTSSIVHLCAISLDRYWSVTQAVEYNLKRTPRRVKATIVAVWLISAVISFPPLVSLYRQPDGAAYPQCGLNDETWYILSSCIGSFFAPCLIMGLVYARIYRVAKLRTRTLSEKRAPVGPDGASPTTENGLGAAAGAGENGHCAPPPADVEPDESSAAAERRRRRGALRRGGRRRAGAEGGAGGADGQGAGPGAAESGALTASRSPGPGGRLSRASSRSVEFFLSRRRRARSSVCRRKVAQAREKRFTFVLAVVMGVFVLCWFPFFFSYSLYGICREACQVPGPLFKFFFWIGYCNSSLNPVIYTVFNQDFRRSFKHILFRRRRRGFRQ

[9] = biological target: Vasopressin V1a receptor (Homo sapiens) (UniProt P37288); assay: Vasopressin V1A Eurofins Panlabs panel; settings: concentration not given here
Chain of Vasopressin V1a receptor (Homo sapiens) (P37288 whole entry, looked up): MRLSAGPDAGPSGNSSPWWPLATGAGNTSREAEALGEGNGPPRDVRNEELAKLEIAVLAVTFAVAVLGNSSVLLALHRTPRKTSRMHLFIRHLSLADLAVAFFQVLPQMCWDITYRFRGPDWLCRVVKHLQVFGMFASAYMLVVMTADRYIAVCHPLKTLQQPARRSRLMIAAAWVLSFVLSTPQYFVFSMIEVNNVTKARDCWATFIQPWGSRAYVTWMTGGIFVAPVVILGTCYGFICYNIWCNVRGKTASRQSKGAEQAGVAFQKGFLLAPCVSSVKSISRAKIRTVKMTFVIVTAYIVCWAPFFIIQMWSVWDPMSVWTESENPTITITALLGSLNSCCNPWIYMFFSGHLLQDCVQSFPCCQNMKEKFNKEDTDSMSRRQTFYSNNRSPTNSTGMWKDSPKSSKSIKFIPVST

[10] = biological target: Cannabinoid receptor 1 (Homo sapiens) (UniProt P21554); assay: Cannabinoid CB1 Eurofins Panlabs panel; settings: Compound concentration 10.0 uM
[11] = biological target: T3, Muscarinic acetylcholine receptor M4 (Homo sapiens) (UniProt P08173); assay: Muscarinic M4 Eurofins Panlabs panel; settings: Compound concentration 10.0 uM
T3 sequence (whole entry): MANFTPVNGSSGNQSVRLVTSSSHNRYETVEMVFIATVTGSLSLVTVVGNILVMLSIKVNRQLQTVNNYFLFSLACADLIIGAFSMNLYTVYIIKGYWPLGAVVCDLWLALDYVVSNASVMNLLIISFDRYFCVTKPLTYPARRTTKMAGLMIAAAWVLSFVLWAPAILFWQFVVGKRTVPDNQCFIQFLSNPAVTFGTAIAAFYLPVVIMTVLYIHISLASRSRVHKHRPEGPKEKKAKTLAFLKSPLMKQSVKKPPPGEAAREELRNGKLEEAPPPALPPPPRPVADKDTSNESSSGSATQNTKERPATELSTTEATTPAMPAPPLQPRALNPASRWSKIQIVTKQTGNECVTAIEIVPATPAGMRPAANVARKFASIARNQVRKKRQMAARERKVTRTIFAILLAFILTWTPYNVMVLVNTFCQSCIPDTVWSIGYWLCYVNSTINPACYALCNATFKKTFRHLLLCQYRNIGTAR

[12] = biological target: Sodium-dependent noradrenaline transporter (Homo sapiens) (UniProt P23975); assay: Transporter, Norepinephrine (NET) Eurofins Panlabs panel; settings: Compound concentration 10.0 uM
[13] = biological target: GABA B receptor (Rattus norvegicus) (UniProt Q9Z0U4+O88871); assay: GABAB, Non-Selective Eurofins Panlabs panel; assay type: protein-complex assay; settings: Compound concentration 10.0 uM
[14] = biological target: T4, High affinity cAMP-specific and IBMX-insensitive 3',5'-cyclic phosphodiesterase 8A (Homo sapiens, UniProt O60658); assay: 3H-cAMP and 3H-cGMP Scintillation Proximity Assay (PDE8A)
T4 sequence (O60658 whole entry): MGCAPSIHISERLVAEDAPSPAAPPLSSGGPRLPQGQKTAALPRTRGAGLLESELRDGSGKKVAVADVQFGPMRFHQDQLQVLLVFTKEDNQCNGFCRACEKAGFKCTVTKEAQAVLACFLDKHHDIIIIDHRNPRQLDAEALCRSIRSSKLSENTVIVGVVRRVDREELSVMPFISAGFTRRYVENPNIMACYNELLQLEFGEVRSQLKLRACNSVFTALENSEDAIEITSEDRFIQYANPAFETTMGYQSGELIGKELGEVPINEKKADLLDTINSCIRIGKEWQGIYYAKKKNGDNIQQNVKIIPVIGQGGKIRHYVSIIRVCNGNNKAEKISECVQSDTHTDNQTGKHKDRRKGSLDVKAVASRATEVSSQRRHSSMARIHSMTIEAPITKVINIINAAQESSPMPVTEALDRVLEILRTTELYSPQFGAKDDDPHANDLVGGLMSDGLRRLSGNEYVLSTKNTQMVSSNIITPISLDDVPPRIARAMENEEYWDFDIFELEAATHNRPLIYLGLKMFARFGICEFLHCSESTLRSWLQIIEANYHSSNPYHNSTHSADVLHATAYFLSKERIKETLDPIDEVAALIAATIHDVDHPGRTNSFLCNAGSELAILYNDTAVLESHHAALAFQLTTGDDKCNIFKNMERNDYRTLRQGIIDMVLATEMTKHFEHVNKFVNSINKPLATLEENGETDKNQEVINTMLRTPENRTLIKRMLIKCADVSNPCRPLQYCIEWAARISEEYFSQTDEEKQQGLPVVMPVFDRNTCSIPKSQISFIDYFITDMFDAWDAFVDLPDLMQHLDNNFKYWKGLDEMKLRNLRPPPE

[15] = biological target: Sodium-dependent dopamine transporter (Homo sapiens) (UniProt Q01959); assay: Transporter, Dopamine (DAT) Eurofins Panlabs panel; settings: Compound concentration 10.0 uM
[16] = biological target: Interleukin-1 receptor type 1 (Mus musculus) (UniProt P13504); assay: Interleukin IL-1 Eurofins Panlabs panel; settings: Compound concentration 10.0 uM
Chain of Interleukin-1 receptor type 1 (Mus musculus) (P13504 whole entry): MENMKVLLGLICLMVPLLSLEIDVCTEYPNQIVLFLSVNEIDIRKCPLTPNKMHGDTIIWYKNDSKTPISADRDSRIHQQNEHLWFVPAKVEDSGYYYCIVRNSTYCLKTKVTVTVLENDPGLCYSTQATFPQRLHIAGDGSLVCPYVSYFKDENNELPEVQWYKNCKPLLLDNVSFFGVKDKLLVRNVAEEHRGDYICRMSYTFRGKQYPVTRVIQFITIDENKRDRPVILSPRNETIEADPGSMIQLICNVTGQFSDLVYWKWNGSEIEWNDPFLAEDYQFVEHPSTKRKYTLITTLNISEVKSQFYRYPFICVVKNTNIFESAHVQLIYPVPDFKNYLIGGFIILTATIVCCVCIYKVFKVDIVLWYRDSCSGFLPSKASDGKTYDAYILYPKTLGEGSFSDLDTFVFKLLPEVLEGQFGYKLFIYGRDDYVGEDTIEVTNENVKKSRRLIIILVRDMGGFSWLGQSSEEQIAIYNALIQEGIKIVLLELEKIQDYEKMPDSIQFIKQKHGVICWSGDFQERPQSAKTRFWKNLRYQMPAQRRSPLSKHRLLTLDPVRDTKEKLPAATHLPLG

[17] = biological target: Acetylcholinesterase (Homo sapiens) (UniProt P22303); assay: Cholinesterase, Acetyl, ACES Eurofins Panlabs panel; settings: Compound concentration 10.0 uM
[18] = biological target: T4, High affinity cAMP-specific and IBMX-insensitive 3',5'-cyclic phosphodiesterase 8A; assay: Panlabs assay PDE8A1; set-up: compound concentration 10 uM; settings: at 10 µM
[19] = biological target: Dual specificity calcium/calmodulin-dependent 3',5'-cyclic nucleotide phosphodiesterase 1A (Homo sapiens) (UniProt P54750); assay: Panlabs assay PDE1A; set-up: compound concentration 10 uM; settings: at 10 µM
[20] = biological target: 3',5'-cyclic-AMP phosphodiesterase 7B (Homo sapiens, UniProt Q9NP56); assay: Panlabs assay PDE7B; set-up: compound concentration 10 uM; settings: at 10 µM
Chain of 3',5'-cyclic-AMP phosphodiesterase 7B (Q9NP56 whole entry): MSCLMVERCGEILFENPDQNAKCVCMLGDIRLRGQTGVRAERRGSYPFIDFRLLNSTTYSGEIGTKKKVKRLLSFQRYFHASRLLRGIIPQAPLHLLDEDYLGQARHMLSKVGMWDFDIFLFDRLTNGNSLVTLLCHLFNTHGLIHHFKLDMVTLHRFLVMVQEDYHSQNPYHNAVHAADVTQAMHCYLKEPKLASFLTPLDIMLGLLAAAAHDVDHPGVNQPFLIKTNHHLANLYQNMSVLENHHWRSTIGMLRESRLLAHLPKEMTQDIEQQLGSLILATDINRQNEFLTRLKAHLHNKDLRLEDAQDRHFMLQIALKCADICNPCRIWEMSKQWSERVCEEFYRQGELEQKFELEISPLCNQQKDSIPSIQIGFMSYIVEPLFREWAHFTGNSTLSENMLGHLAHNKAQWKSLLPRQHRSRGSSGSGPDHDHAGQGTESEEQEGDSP

[21] = biological target: cGMP-inhibited 3',5'-cyclic phosphodiesterase 3B (Homo sapiens, UniProt Q13370); assay: Panlabs assay PDE3B; set-up: compound concentration 10 uM; settings: at 10 µM
[22] = biological target: cGMP-dependent 3',5'-cyclic phosphodiesterase (Homo sapiens, UniProt O00408); assay: Panlabs assay PDE2A; set-up: compound concentration 10 uM; settings: at 10 µM
Chain of cGMP-dependent 3',5'-cyclic phosphodiesterase (O00408 whole entry): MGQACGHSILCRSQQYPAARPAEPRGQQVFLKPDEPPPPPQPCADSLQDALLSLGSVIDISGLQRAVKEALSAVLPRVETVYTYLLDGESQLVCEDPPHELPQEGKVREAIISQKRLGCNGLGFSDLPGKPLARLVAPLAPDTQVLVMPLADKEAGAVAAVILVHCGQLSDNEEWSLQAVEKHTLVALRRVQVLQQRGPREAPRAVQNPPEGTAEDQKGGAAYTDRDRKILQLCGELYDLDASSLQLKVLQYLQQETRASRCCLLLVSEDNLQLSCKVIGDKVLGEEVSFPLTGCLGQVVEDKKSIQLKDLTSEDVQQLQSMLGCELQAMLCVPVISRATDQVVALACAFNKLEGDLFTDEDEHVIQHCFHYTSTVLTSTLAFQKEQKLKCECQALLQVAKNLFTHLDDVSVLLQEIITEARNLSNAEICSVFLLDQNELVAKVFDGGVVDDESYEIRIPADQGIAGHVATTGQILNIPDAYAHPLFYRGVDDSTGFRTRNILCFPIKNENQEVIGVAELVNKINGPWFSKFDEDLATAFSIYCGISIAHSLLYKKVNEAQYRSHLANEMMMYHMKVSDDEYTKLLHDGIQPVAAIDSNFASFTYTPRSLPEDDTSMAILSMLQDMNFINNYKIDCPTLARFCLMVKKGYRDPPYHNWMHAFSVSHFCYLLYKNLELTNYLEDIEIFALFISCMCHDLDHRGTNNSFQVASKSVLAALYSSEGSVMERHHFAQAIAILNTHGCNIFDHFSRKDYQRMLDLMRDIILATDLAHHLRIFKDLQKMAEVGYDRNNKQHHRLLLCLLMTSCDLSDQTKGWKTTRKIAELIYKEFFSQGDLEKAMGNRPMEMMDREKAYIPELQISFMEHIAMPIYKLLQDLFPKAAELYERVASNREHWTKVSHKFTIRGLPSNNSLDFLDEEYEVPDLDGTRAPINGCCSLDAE

[23] = biological target: 3',5'-cyclic-AMP phosphodiesterase 4B (Homo sapiens, UniProt Q07343); assay: Panlabs assay PDE4B1; set-up: compound concentration 10 uM; settings: at 10 µM
Chain of 3',5'-cyclic-AMP phosphodiesterase 4B (Q07343 whole entry): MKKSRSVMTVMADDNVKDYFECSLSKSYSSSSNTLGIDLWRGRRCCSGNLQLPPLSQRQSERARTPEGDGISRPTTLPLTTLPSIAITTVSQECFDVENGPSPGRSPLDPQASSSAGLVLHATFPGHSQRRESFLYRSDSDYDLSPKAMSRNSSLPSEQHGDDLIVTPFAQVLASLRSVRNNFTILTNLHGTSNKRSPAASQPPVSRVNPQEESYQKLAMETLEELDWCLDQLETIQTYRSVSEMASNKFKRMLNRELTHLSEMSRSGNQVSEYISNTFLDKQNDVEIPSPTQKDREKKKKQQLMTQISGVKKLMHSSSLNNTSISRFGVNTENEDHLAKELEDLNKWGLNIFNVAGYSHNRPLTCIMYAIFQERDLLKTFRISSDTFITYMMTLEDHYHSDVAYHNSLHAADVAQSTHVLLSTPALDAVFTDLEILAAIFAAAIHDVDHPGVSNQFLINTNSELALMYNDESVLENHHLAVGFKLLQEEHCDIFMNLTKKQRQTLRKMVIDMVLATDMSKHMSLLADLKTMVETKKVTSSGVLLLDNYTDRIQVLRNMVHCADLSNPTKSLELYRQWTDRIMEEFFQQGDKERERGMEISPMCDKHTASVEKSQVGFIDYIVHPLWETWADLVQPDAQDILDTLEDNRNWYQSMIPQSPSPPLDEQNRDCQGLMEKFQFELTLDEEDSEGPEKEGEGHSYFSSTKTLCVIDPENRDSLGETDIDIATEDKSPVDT

Chain of Prostaglandin E2 receptor EP1 subtype (Homo sapiens) (P34995 whole entry): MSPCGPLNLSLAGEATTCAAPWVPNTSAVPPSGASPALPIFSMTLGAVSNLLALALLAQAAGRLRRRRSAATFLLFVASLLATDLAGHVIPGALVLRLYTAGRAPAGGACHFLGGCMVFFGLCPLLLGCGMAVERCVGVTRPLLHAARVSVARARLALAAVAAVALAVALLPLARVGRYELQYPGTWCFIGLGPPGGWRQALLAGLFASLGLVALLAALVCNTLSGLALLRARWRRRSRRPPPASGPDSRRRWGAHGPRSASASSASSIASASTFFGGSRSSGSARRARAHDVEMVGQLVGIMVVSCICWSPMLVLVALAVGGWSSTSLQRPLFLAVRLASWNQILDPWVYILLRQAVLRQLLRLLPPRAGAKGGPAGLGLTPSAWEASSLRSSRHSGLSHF

Compound: CCC[C@H]1CNCc2c1[nH]c(=O)c(C#N)c2N1CCC2(CC1)CC2
- inhibition [1]: 8%
- inhibition [2]: -5%
- inhibition [3]: 6%
- inhibition [4]: 16%
- inhibition [5]: 5%
- inhibition [6]: 16.5%
- inhibition [7]: 22%
- inhibition [8]: -1%
- inhibition [9]: 0%
- inhibition [10]: 31.2%
- inhibition [11]: -4%
- inhibition [12]: 6%
- inhibition [13]: -1%
- IC50 [14]: 1490 nM (not active)
- inhibition [15]: 19%
- inhibition [16]: 14%
- inhibition [17]: 5%

Compound: CCC[C@@H]1CNCc2c1[nH]c(=O)c(C#N)c2N1CCC2(CC1)CC2
- inhibition [18]: 2.9%
- inhibition [19]: 7.7%
- inhibition [20]: -2.1%
- inhibition [21]: 0.8%
- inhibition [22]: 3.5%
- inhibition [23]: 10.6%

Source: ChEMBL document CHEMBL5303765, “Data for DCP probe BAY-7081” (2023)
